From ChEMBL document CHEMBL1201862, “PubChem BioAssay data set” (2004)
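All cell lines were grown in 96-well plates and treated with compound for 48 hours. GI50: concentration for 50% inhibition of growth.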 Active and inactive are the calls of the source. Cut-off read from the data, not from the text of the source: active = GI50 up to about 1.1 µM and inactive = higher.

Columns and labels:
Experiment in all cases: NCI tumour cell line growth inhibition, 48 h
RXF 393 = tested on: RXF 393
Malme-3M = tested on: Malme-3M
CAKI-1 = tested on: CAKI-1
SNB-19 = tested on: SNB-19
786-0 = tested on: 786-0
UO-31 = tested on: UO-31
SK-MEL-2 = tested on: SK-MEL-2
NCI-H226 = tested on: NCI-H226
LOX IMVI = tested on: LOX IMVI
OVCAR-4 = tested on: OVCAR-4
SF-539 = tested on: SF-539
ACHN = tested on: ACHN
K562 = tested on: K562
KM12 = tested on: KM12
M19-MEL = tested on: M19-MEL
SR = tested on: SR
MDA-MB-231 = tested on: MDA-MB-231
PC-3 = tested on: PC-3
MDA-MB-435 = tested on: MDA-MB-435
NCI/ADR-RES = tested on: NCI/ADR-RES

| Compound | GI50 (RXF 393) | GI50 (Malme-3M) | GI50 (CAKI-1) | GI50 (SNB-19) | GI50 (786-0) | GI50 (UO-31) | GI50 (SK-MEL-2) | GI50 (NCI-H226) | GI50 (LOX IMVI) | GI50 (OVCAR-4) | GI50 (SF-539) | GI50 (ACHN) | GI50 (K562) | GI50 (KM12) | GI50 (M19-MEL) | GI50 (SR) | GI50 (MDA-MB-231) | GI50 (PC-3) | GI50 (MDA-MB-435) | GI50 (NCI/ADR-RES) |
| --- | --- | --- | --- | --- | --- | --- | --- | --- | --- | --- | --- | --- | --- | --- | --- | --- | --- | --- | --- | --- |
| CC(C)(C)C(=O)OC12/C(=N/O)CCCCCC1c1ccccc12 (centres undefined) | 19.5 µM (inactive) | 21 µM (inactive) | 11.9 µM (inactive) | 17.4 µM (inactive) | 17.2 µM (inactive) | 17.1 µM (inactive) | 19.2 µM (inactive) | 17.7 µM (inactive) | 14.3 µM (inactive) | 18.9 µM (inactive) | 23.2 µM (inactive) | 17.9 µM (inactive) | 19.5 µM (inactive) | 16.1 µM (inactive) | 16.6 µM (inactive) | – | – | – | – | – |
| COc1cccc(/C=C(/C(=O)O)c2cc(OC)c(OC)c(OC)c2)c1 | 45.2 µM (inactive) | > 100 µM (inactive) | > 100 µM (inactive) | > 100 µM (inactive) | > 100 µM (inactive) | > 100 µM (inactive) | – | > 100 µM (inactive) | > 100 µM (inactive) | > 100 µM (inactive) | > 100 µM (inactive) | > 100 µM (inactive) | 51.8 µM (inactive) | > 100 µM (inactive) | > 100 µM (inactive) | – | – | – | – | – |
| COc1ccc(N2C(=O)/C(=C/c3ccc(N(CCC#N)CCC#N)cc3C)N=C2/C=C\c2ccccc2)cc1 | – | 41.6 µM (inactive) | 29.2 µM (inactive) | > 100 µM (inactive) | 44.4 µM (inactive) | 14 µM (inactive) | > 100 µM (inactive) | > 100 µM (inactive) | 28.8 µM (inactive) | 47 µM (inactive) | 10.8 µM (inactive) | 18.6 µM (inactive) | 40.1 µM (inactive) | 28.1 µM (inactive) | 26.5 µM (inactive) | 44 µM (inactive) | – | – | – | – |
| Cc1ccc(C2=Nc3ccccc3SC(c3cccc4c3OCO4)C2)cc1 (centres undefined) | > 10 µM (inactive) | 24.1 µM (inactive) | 16.1 µM (inactive) | 16.1 µM (inactive) | 19 µM (inactive) | 14.1 µM (inactive) | 20.3 µM (inactive) | 18.1 µM (inactive) | 16.6 µM (inactive) | 15.5 µM (inactive) | 20 µM (inactive) | 20.4 µM (inactive) | 14.8 µM (inactive) | 15.7 µM (inactive) | 19.8 µM (inactive) | – | – | – | – | – |
| Cc1cccc(C)c1NC(=O)CCc1n[nH]c(=S)o1 | – | > 100 µM (inactive) | > 100 µM (inactive) | > 100 µM (inactive) | 71.9 µM (inactive) | > 100 µM (inactive) | – | > 100 µM (inactive) | – | > 100 µM (inactive) | > 100 µM (inactive) | > 100 µM (inactive) | 36.2 µM (inactive) | > 100 µM (inactive) | > 100 µM (inactive) | – | – | – | – | – |
| COc1ccc2[nH]cc(CCNC(C)=O)c2c1 [MELATONIN] | > 100 µM (inactive) | > 100 µM (inactive) | > 100 µM (inactive) | > 100 µM (inactive) | 88.5 µM (inactive) | > 100 µM (inactive) | > 100 µM (inactive) | – | 39.8 µM (inactive) | > 100 µM (inactive) | > 100 µM (inactive) | > 100 µM (inactive) | 39.1 µM (inactive) | > 100 µM (inactive) | > 100 µM (inactive) | – | – | – | – | – |
| CC(=O)OC1CC2C(C)(C)C(=O)C=C[C@]2(C)C2CCC3(C)C(c4ccoc4)C(=O)C4OC43[C@]12C (some centres undefined) | – | 15.2 µM (inactive) | 28.5 µM (inactive) | 31.3 µM (inactive) | 25.9 µM (inactive) | 20.2 µM (inactive) | 16 µM (inactive) | 16.2 µM (inactive) | 13.2 µM (inactive) | 15.1 µM (inactive) | 20.1 µM (inactive) | 24.2 µM (inactive) | 13.1 µM (inactive) | 15.1 µM (inactive) | 16 µM (inactive) | 11.5 µM (inactive) | – | – | – | – |
| N#C/C(C(=S)NCc1ccccc1)=C(/N)N1CCCC1 | 74.3 µM (inactive) | > 100 µM (inactive) | > 100 µM (inactive) | > 100 µM (inactive) | > 100 µM (inactive) | > 100 µM (inactive) | > 100 µM (inactive) | > 100 µM (inactive) | > 100 µM (inactive) | > 100 µM (inactive) | > 100 µM (inactive) | > 100 µM (inactive) | > 100 µM (inactive) | > 100 µM (inactive) | – | > 100 µM (inactive) | > 100 µM (inactive) | > 100 µM (inactive) | > 100 µM (inactive) | > 100 µM (inactive) |
| CC(=O)OC1C(CCl)OC(N=[N+]=[N-])C(OC(C)=O)C1OC(C)=O (centres undefined) | > 100 µM (inactive) | > 100 µM (inactive) | > 100 µM (inactive) | > 100 µM (inactive) | > 100 µM (inactive) | > 100 µM (inactive) | > 100 µM (inactive) | – | – | > 100 µM (inactive) | > 100 µM (inactive) | > 100 µM (inactive) | > 100 µM (inactive) | > 100 µM (inactive) | > 100 µM (inactive) | – | – | – | – | – |
| O=C(Cc1nc2ccccc2s1)C(=O)Nc1ccc(Cl)cc1Cl | – | > 100 µM (inactive) | – | > 100 µM (inactive) | > 100 µM (inactive) | > 100 µM (inactive) | > 100 µM (inactive) | 77.6 µM (inactive) | > 100 µM (inactive) | > 100 µM (inactive) | > 100 µM (inactive) | > 100 µM (inactive) | > 100 µM (inactive) | > 100 µM (inactive) | > 100 µM (inactive) | > 100 µM (inactive) | – | – | – | – |
| Nc1ccc(Oc2ccc(C3(c4ccc(Oc5ccc(N)c(O)c5)cc4)C4CC5CC(C4)CC3C5)cc2)cc1O | 1.73 µM (inactive) | 2.3 µM (inactive) | 2.47 µM (inactive) | 2.4 µM (inactive) | 1.82 µM (inactive) | 1.92 µM (inactive) | 1.86 µM (inactive) | 1.83 µM (inactive) | 1.81 µM (inactive) | 2.43 µM (inactive) | 1.12 µM (active) | 1.82 µM (inactive) | 2.04 µM (inactive) | 1.91 µM (inactive) | – | 1.17 µM (inactive) | 1.82 µM (inactive) | 1.68 µM (inactive) | 2.02 µM (inactive) | 2.35 µM (inactive) |
| Cn1cc(S(=O)(=O)NC(=O)Nc2ccc(Cl)cc2)c(=O)c2ccc(F)cc21 | > 100 µM (inactive) | > 100 µM (inactive) | > 100 µM (inactive) | > 100 µM (inactive) | > 100 µM (inactive) | > 100 µM (inactive) | > 100 µM (inactive) | > 100 µM (inactive) | 22.6 µM (inactive) | > 100 µM (inactive) | > 100 µM (inactive) | > 100 µM (inactive) | > 100 µM (inactive) | 47.6 µM (inactive) | – | > 100 µM (inactive) | > 100 µM (inactive) | > 100 µM (inactive) | > 100 µM (inactive) | > 100 µM (inactive) |
| COc1cc(N)c2[nH]c3c(C)ccc(C)c3c2c1 | – | > 100 µM (inactive) | > 100 µM (inactive) | > 100 µM (inactive) | > 100 µM (inactive) | > 100 µM (inactive) | > 100 µM (inactive) | > 100 µM (inactive) | > 100 µM (inactive) | > 100 µM (inactive) | > 100 µM (inactive) | > 100 µM (inactive) | > 100 µM (inactive) | > 100 µM (inactive) | > 100 µM (inactive) | > 100 µM (inactive) | – | – | – | – |
